Test results reported in patent US20240408223A1 (REGENERON PHARMACEUTICALS, INC., priority 2017, published 2024).
Values after ≈ are worked out from the molar mass of the structure shown. *1 amine or outer side, *2 acyl side, *3 side chain or, on linkers, in order; H or OH if unused. Where a SMILES comes first, the peptide text is derived from it. [ ]: non-standard residue; d: D form. The star is where a group is joined. X2 = O=C(COC1CCCCCc2c1nnn2[C@@H]1O[C@H](CO)[C@H](O)[C@H](O)[C@H]1O)*; NH(1-deoxy-D-glucityl) = OC[C@@H](O)[C@@H](O)[C@H](O)[C@@H](O)CN*; Dolaproine = CO[C@@H]([C@@H]1CCCN1)[C@@H](C)C(=O)O; Dil = CC[C@H](C)[C@H](NC)[C@@H](CC(=O)O)OC; PABC = O=C(OCc1ccc(N[*:1])cc1)[*:2]; DBCO = C1#Cc2ccccc2N(*)Cc2ccccc21; X1 = C[C@@H](N*)[C@@H](O)c1ccccc1; Cit = NC(=O)NCCC[C@H](N)C(=O)O; PEG4 = NCCOCCOCCOCCOCCC(=O)O; Suc = O=C(CCC(=O)[*:2])[*:1]; NMeV = CN[C@H](C(=O)O)C(C)C

Legend:
[1] = pH stability in buffers, determined by LC-MS; type: physicochemical; details: pH7.4 and 8 buffer, RT, Table 3-1
Protocol: pH stability was assessed as follows. 0.1 mg of sample was dissolved into 0.2-0.3 mL of DMSO, and the resulting solution was added dropwise into different pH buffers (1 mL) while maintain clear solutions during testing time period. The samples were collected from several time points (e.g., over 72 hours), and pH stability was determined by LC-MS. pH buffer was prepared as follows: pH 8.0 sodium borate buffer: Add 9.534 g Sodium borate decahydrate, 1.461 g Sodium chloride, and 0.393 g DTPA to 900 mL distilled water, make sure all powers dissolve completely, then make final volume to 1 L by adding water. pH 7.4 sodium borate buffer: Add […], 9.534 g Sodium borate decahydrate, 1.461 g Sodium chloride, and 0.393 g DTPA to 900 mL distilled water, make sure all powers dissolve completely, then make final volume to 1 L by adding water. pH 5.0 succinate acid buffer: Add 10 mM succinate acid to 150 mL distilled water, and then change the pH to pH5.0 by adding 0.5M NaOH, then make final volume to 250 mL by adding water. pH 7.4 PBS buffer: commercially available. Stability was assessed at 72 hours by LCMS.

[2] = physchem
Protocol: The DMSO solution (1 mg/mL, 0.5 mL) was diluted with water (4.5 mL) to generate solution A (0.1 mg/mL, 5 mL, 0.5 mg). Solution A (0.1 mg/mL, 0.5 mL) was diluted with water (4.5 mL) to generate solution B (0.01 mg/mL, 5 mL, 0.05 mg). Solution B (0.01 mg/mL, 0.5 mL) was diluted with water (4.5 mL) to generate solution C (1 μg/mL, 5 mL, 5 μg). Solution C (1 μg/mL, 0.5 mL) was diluted with water (4.5 mL) to generate solution D (0.1 μg/mL, 5 mL, 0.5 μg). The testing sample (0.05 mg) was suspended in water (1 mL), and was sonicated for 5-30 min to dissolve the sample. If no clear solution was observed, the resulting suspension was centrifuged and the clear supernatant solution was collected for analysis. All the standard solutions A, B, C, D and sample solutions were tested using same method on the same LC-MS instrument. Solubility was assessed by LCMS and calculated based on a standard curve.

[3] = biological target: Human liver Cathepsin B (Homo sapiens, UniProt P07858); assay: Cathepsin B cleavage assay of linker-payloads; details: Table 1D
Protocol: For the assay, the linker-payload stock solution (10 mM of linker-payload in DMSO) was added into a solution of 100 mM NaOAc, 10 mM dithiothreitol, at pH5 to obtain a 50 μM substrate solution. […] The Cathepsin B and substrate solution was mixed with and without 10 mM of a Cathepsin B inhibitor (CA074; APE Bio, Cat #A1926), and incubated at 37° C. for 4 hours. Following the 4 hour incubation, acetic acid and then acetonitrile were added to stop the reaction. The quenched samples then underwent centrifugation at 14,000 rpm. Aliquots of the resultant supernatants were then diluted with equal volume of water and analyzed by LC/MS to determine the amount of payload released.

Row | Compound | pH Stability [1] | solubility [2] [µg/mL] | CapB cleavage rate (%) at 4 hrs [3] [%]
1 | CC[C@H](C)[C@@H]([C@@H](CC(=O)N1CCC[C@H]1[C@H](OC)[C@@H](C)C(=O)N[C@H](C)[C@@H](O)c1ccccc1)OC)N(C)C(=O)[C@@H](NC(=O)[C@H](C(C)C)N(C)C(=O)OCc1ccc(NC(=O)[C@H](CCCNC(N)=O)NC(=O)[C@@H](NC(=O)[C@@H](CCCCNC(=O)COC2CCCCCc3c2nnn3[C@@H]2O[C@H](CO)[C@H](O)[C@H](O)[C@H]2O)NC(=O)CCOCCOCCOCCOCCNC(=O)CCC(=O)N2Cc3ccccc3C#Cc3ccccc32)C(C)C)cc1)C(C)C (stereo partly drawn) [Ie-1] ({DBCO-Suc-PEG4}-[dK](X2)V[Cit][PABC][NMeV]V[Dil][Dolaproine]-X1) | Y (stable in pH7.4 and 8 buffer at RT for more than 3 days) | 400 (≈ 186 µM) | 72
2 | CC[C@H](C)[C@@H]([C@@H](CC(=O)N1CCC[C@H]1[C@H](OC)[C@@H](C)C(=O)N[C@H](C)[C@@H](O)c1ccccc1)OC)N(C)C(=O)[C@@H](NC(=O)[C@H](C(C)C)N(C)C(=O)OCc1ccc(NC(=O)[C@H](CCCNC(N)=O)NC(=O)[C@@H](NC(=O)[C@@H](CCC(=O)NC[C@H](O)[C@@H](O)[C@H](O)[C@H](O)CO)NC(=O)CCOCCOCCOCCOCCNC(=O)CCC(=O)N2Cc3ccccc3C#Cc3ccccc32)C(C)C)cc1)C(C)C [Ig] ({DBCO-Suc-PEG4}-[dE](NH(1-deoxy-D-glucityl))V[Cit][PABC][NMeV]V[Dil][Dolaproine]-X1) | Y (stable in pH7.4 and 8 buffer at RT for more than 3 days) | 280 (≈ 144 µM) | 70
